This is an account of results in patent publication US9119398B2, “Plant growth regulating compounds” (Syngenta Participations AG, priority 2012, dated 2015).

“And” between values parts separate entries of the source, which are not always exact repeats. Equal entries are not always repeated.

The test system of data set [1] is Brassica oleracea cv Botrytis (temperate cauliflower) seeds. The data set is described as follows: Paper germination test, temperate cauliflower seeds, 10° C. in the light. The data set is classed as in vivo. Conditions: 25 μM, sets A and B separate experiments. The procedure:
The effect of compounds of Formula (I) on the germination of Brassica oleracea cv Botrytis or common cauliflower was tested on two types of cauliflowers: temperate types and tropical types. These two types were chosen because they display different sensitivities to the light conditions and temperature during germination. Germination of a sensitive temperate type is inhibited by light at 10° C. while for the tropical types germination at 20° is stimulated by the presence of light.
The temperate seed batches tested are part of commercially produced seed batches of various varieties which are known to be sensitive to light at 10° C. These seeds were harvested and cleaned according standard commercial procedures. Ready seed batches were used (Ready indicates the processing level of these seeds: they have been cleaned and sized but received no other treatments). The tropical seed batches tested are part of seed batches produced as basic seed (for maintenance of the parental line) and were processed accordingly.
Germination was assessed using the standard paper germination test for Brassica: Fifty seeds were placed on blue germination paper, which was moistened with the appropriate solutions, in closed oblong germination boxes. Each condition was tested in duplo. Germination boxes were placed in controlled germination cabinets with the appropriate temperature and light conditions. Germination of seeds was counted at regular intervals. Seeds were considered to be germinated when the radical had protruded the testa and endosperm (radical size approximately 1 mm)
Test compounds were dissolved in DMSO at a concentration of 50 mM and stored at −20° C. The strigolactone analogue GR24 (commercially available as a racemic mixture of 2 diastereoisomers, referred to as “synthetic strigolactone GR-24” and first prepared by Johnson A. W. & all, Journal of the Chemical Society, Perkin Transactions 1, 1981, page 1734-1743) was included as positive control. Germination solutions were prepared by diluting the stock solutions with demineralized water till 25 μM. As control solutions demineralized water and a 0.05% v/v DMSO solution were used.

The subject of data set [2] is Orobanche cumana Wallr. seeds. The data set is described as follows: Germination of preconditioned Orobanche cumana seeds on glass fiber filter paper in petri dishes. The data set is classed as in vivo. The note with it: mean, N = 5 × 100 seeds, seed lot IN153. The method, then: The effect of compounds of Formula (I) on germination of Orobanche cumana Wallr. seeds was evaluated on glass fiber filter paper (GFFP) in petri dishes. Seeds were preconditioned at moisture and suitable temperature to become responsive to the specific chemical germination stimulants.
Test compounds were dissolved in DMSO (10 000 mg l^−1) and stored at room temperature in a desiccators with desiccants. The stock solutions were dissolved with deionised water to the appropriate final test concentration.
Seeds of O. cumana race ‘F’ (IN153) were collected from a sunflower field in Manzanilla (Seville, Spain) in 2006 and stored at room temperature. To separate seeds from heavy organic debris, a modified sucrose floatation technique as described by Hartman & Tanimonure (Plant Disease (1991), 75, p. 494) was applied. Seeds were filled into a separation funnel and stirred in water. When seeds floated to the surface, the water fraction containing heavy debris was discarded. Seeds were re-suspended in 2.5M sucrose solution (specific gravity of 1.20) and heavy debris was allowed to settle down for 60 min After removing debris, seeds were disinfected in 1% sodium hypochlorite solution and 0.025% (v/v) Tween 20 for 2 min. The seeds were decanted onto two layers of cheesecloth, rinsed with sterile deionised water and re-suspended in sterile deionised water. Two ml of the seed suspension containing approximately 150-400 seeds were spread evenly on two layers of sterile glass fiber filter paper disc ([…]) in Petri dishes (Ø9 cm). After wetting the discs with 3 ml sterile deionised water, petri dishes were sealed with parafilm. Seeds were incubated for 10 days at 20° C. in the dark for seed conditioning. The upper disc with conditioned seeds was briefly dried, transferred to a petri dish lined with a dry GFFP disc, and wetted with 6 ml of the appropriate test solution. The compounds of Formula (I) were tested at concentrations of 0.001, 0.01, 0.1, or 1 mg l^−. The strigolactone analogue GR24 was included as positive control and 0.01% DMSO as negative control. All treatments were tested in five replicates. Seeds were re-incubated at 20° C. in the dark and examined for germination 10 days later. The radicles of germinated seeds were stained for 5 min with blue ink (MIGROS, Switzerland) in 5% acetic acid according to Long et al. (Seed Science Research (2008), 18, p. 125). After staining, seeds were photographed using a camera stand mounted with a digital SLR camera (Canon EOS 5D). Germination of 100 seeds per replicate was evaluated on digital images. Seeds were considered germinated when the radicle protruded from the seed coat.

The mark [3] stands for this setting: temperate cauliflower Spacestar seed batch 11B313 (cold-sensitive).
Setting [4] is: temperate cauliflower Spacestar seed batch 11B314 (not cold sensitive).
[5] abbreviates: Table B1, concentration 0.001 mg 1^−1, DMSO control 0.4% germination.
[6] abbreviates: Table B1, concentration 0.1 mg 1^−1, DMSO control 0.4% germination.
Where [7] appears, read: Table B1, concentration 1 mg 1^−1, DMSO control 0.4% germination.
Where [8] appears, read: Table B5, concentration 0.01 mg 1^−1 (second column), DMSO control 1.4% germination.
[9] abbreviates: Table B5, concentration 0.01 mg 1^−1 (third column), DMSO control 1.4% germination.
Where [10] appears, read: Table B5, concentration 1 mg 1^−1, DMSO control 1.4% germination.

On to `CC1=C[C@H](O/C=C2/C(=O)O[C@@H]3c4ccccc4C[C@H]23)OC1=O` (mixture of isomers) [GR-24, reference compound], for which the “Gmax (%), total germination as percentage of sown seeds” value (from here on “Gmax (%) … as percentage of sown seeds”) was 71.5% and 80.0% in data set [1] (setting [3]); 93.5% and 93.0% in data set [1] (setting [4]). The “stimulation (%), extra germination compared to the DMSO treatment, as percentage of the germination in the DMSO treatment” value in data set [1] (setting [4]) was 3.3% and 8.1%. The “Germination (%)” value is given as 88% in data set [2] (Concentration 0.01 mg l^-1, 10 days at 20° C. in the dark); 86.6% in data set [2] (Concentration 0.01 mg l^-1 as printed, 10 days at 20° C. in the dark); 95.2% in data set [2] (Concentration 1 mg l^-1, 10 days at 20° C. in the dark); 24.8% in data set [2] (setting [5]); 47.2% in data set [2] (setting [6]); 80.2% in data set [2] (setting [7]). Also, the “Germination (%)” value in data set [2] (Table B2, concentration 0.01 mg 1^−1, DMSO control 2.4% germination) turned out to be 12.2%; in data set [2] (Table B2, concentration 0.1 mg 1^−1, DMSO control 2.4% germination), 46.4%; in data set [2] (Table B2, concentration 1 mg 1^−1, DMSO control 2.4% germination) it was 85.2%; in data set [2] (Table B3, concentration 0.001 mg 1^−1, DMSO control 0% germination), 26%; in data set [2] (Table B3, concentration 0.01 mg 1^−1, DMSO control 0% germination), 51%; in data set [2] (Table B3, concentration 0.1 mg 1^−1, DMSO control 0% germination), 84.2%. Further, the “Germination (%)” value is 78.4% in data set [2] (setting [8]); 65% in data set [2] (setting [9]); 86.6% in data set [2] (setting [10]); 23.0% in data set [2] (Table B6, concentration 0.001 mg 1^−1, DMSO control 2.4% germination); 43.2% in data set [2] (Table B6, concentration 0.1 mg 1^−1, DMSO control 2.4% germination); 58.1% in data set [2] (Table B6, concentration 1 mg 1^−1, DMSO control 2.4% germination).

`CC1=CC(O/C=C2/C(=O)NC3C=CCC23)OC1=O` (stereo not drawn) [Ia-1, (3E)-3-[(4-methyl-5-oxo-2H-furan-2-yl)oxymethylene]-1,3a,4,6a-tetrahydrocyclopenta[b]pyrrol-2-one]: the “Gmax (%) … as percentage of sown seeds” value in data set [1] (setting [3]) came out at 72.0%; in data set [1] (setting [4]), 96.5%. Moreover, the “stimulation (%), extra germination compared to the DMSO treatment, as percentage of the germination in the DMSO treatment” value in data set [1] (setting [3]) came to 20.0%; in data set [1] (setting [4]), 6.6%. For the same molecule, the figures for the “Germination (%)” value in data set [2] (setting [5]), in data set [2] (setting [6]) and in data set [2] (setting [7]) were 1.4%, 24.6% and 23.2%, respectively.

As for `CC1=CC(O/C=C2\CCCCNC2=O)OC1=O` (stereo not drawn) [Ia-13, (3E)-3-[(4-methyl-5-oxo-2H-furan-2-yl)oxymethylene]azepan-2-one], the “Gmax (%) … as percentage of sown seeds” value in data set [1] (setting [3]) is reported as 42.3%; in data set [1] (setting [4]), 92.5%. The “stimulation (%), extra germination compared to the DMSO treatment, as percentage of the germination in the DMSO treatment” value in data set [1] (setting [3]) is reported as −21.8%; in data set [1] (setting [4]) it was 7.6%. Moreover, the “Germination (%)” value in data set [2] (setting [8]) worked out at 34.2%; in data set [2] (setting [9]), 25.6%; in data set [2] (setting [10]), 70%.

The melting point is the temperature of the solid-liquid transition. With `CC1=CC(O/C=C2\CCCCN(c3ccccc3)C2=O)OC1=O` (stereo not drawn) [Ic-13, (3E)-3-[(4-methyl-5-oxo-2H-furan-2-yl)oxymethylene]-1-phenyl-azepan-2-one], the melting point fell in the range of 150 to 160 °C.
